Laboratory results: patent US7582652B2, “Kinase inhibitors” (Eli Lilly and Company, priority 2004, dated 2009)

Test system: MAPKAP-K2 phosphorylation in B16F10 melanoma tumors
Experiment: B16F10 melanoma target (MAPKAP-K2 phosphorylation)
Type: in vivo, C57B16 mice
Settings: p.o., B16F10 tumors in mice, MAPKAP-K2 phosphorylation by immuno-blot
Experimental: B16F10 Melanoma Target (MAPKAP-K2 Phosphorylation)
The B16F10 melanoma cell line is obtained from the American Type Culture Collection, Rockville, Md. The cells are cultured in RPMI-1640 medium supplemented with 10% fetal calf serum. The cells grown in vitro are harvested during their exponential growth phase by gentle trypsinization, washed twice in medium, and resuspended in serum-free RPMI-1640 medium. The number of viable cells is determined using a hemocytometer and adjusted to 1×10^7/mL. Tumor cells are injected subcutaneously in normal C57B16 mice. Inoculum volume per mouse is 0.2 mL (2,000,000 cells). When the tumors reach 300-500 mg, the mice are used for target inhibition studies at either a fixed time (2.5 hours) after p.o. compound treatment or pharmacodynamic studies where the tumors are collected at multiple time-points (e.g., 3, 6, 9, 12, 15, and 18 h) after p.o. compound treatment.
Protein Extraction and Immuno-Blot Analysis
Tumors collected as described above are immediately snap-frozen in liquid nitrogen and stored at −80° C. […] The supernatant is transferred to fresh prechilled microfuge tubes and protein concentrations are measured using Bio-Rad protein assay reagents using bovine serum albumin as protein standard.
Protein extracts are equalized with the extraction buffer. […] Protein bands of interest are quantified from films using Kodak Image Station 1000.

CC(C)(C)Cn1c(N)nc2ccc(-c3nc(C(C)(C)C)[nH]c3-c3ccc(F)cc3)nc21.CS(=O)(=O)O.CS(=O)(=O)O [EXAMPLE 104, Crystalline 5-[2-tert-Butyl-5-(4-fluoro-phenyl)-1H-imidazol-4-yl]-3-(2,2-dimethyl-propyl)-3H-imidazo[4,5-b]pyridin-2-ylamine dimethanesulfonate]
TMED50: 3.59 mg/kg
